Here are results for two compounds from US8480909B2, “Method for treatment of canals” (priority 2009, dated 2013).

One series deals with mollusks. Conditions: cited from earlier work.
For a further series, the system named is fish. Conditions: cited from earlier work.
A further series concerns crustaceans. Conditions: cited from earlier work.
For series [1] the following is noted: cited from earlier work.
Another series concerns insects. Conditions: cited from earlier work.
Another series relates to amphibians. Conditions: cited from earlier work.
Another series concerns zooplankton. Conditions: cited from earlier work.
In another series the test system is algae. Description: Treatment of agricultural-water canal with air-stream-entrained calcium hypochlorite; visual observation of algae. The conditions noted are these: per quarter-mile canal section. It is filed as in vivo. The source says: The device and method of the present invention were employed to treat a canal, and visual observations of the amount of algae present in the canal before this treatment, and periodically after this treatment, are set forth in Tables 1-3 below. (The visual observations are accurate and realistic evaluations because the visual amount of algae in the canal correlates well to actual biological-debris problems.) This canal is fed from a large water reservoir which has about thirty percent of its surface covered with algae. This canal is therefore continuously being inoculated with algae which enters with the source water. The flow rate of the water when entering the canal is about one hundred eighty cubic feet per second. Due to water usage from the various growers along the canal, this initial water flow rate decreases at points along the canal, and then decreases dramatically over the last mile to about twenty cubic feet per second. This canal is a typical example of one which is in need of treatment to remediate organic debris. Prior to the treatments of this Example 1, this canal was being point treated with acrolein every eight to ten days during the height of the irrigation season to obtain a satisfactory treatment. In this Example 1, the canal was treated three times along substantially its entire length by propelling a calcium hypochlorite-entrained air stream to the water surface and to the sides of the canal from a delivery system suspended off a mobile unit as described above. An operator made visual assessments of the degree of organic debris build-up along the canal and adjusted the concentration of calcium hypochlorite in the air stream accordingly. The pre-treatment and post-treatment conditions of the canal are shown in Tables 1, 2 and 3 below where the visual assessment of organic debris, made at each quarter mile along the length of the canal, are reported at: (a) just before treatment; (b) twelve hours after the treatment; (c) about a week (seven or eight days) after the treatment; and about a week and a half (ten, twelve and ten days, respectively) after treatment. The just before treatment assessment for the second and third treatments set forth in Tables 2 and 3 below are also continued-assessments of the prior treatment (i.e., the T2-b observations in Table 2 are the same as the T1-10d observations in Table 1, and the T3-b observations in Table 3 are the same as the T2-12d observations in Table 2). Further, any relative terms in an observation refer to the prior observation made at the given time; for example, the “slightly larger patches” observation under T1-10d at 0.75 to 1.00 miles in Table 1 below refers to the patches being slightly larger than the patches observed at T1-10d at 0.50 to 0.75 miles, and not to the canal condition observed at T1-7d at 0.75 to 1.00 miles.

A further series relates to rats. Conditions: oral; cited from earlier work.

Entries after “also recorded” stand apart in the source; their conditions may differ.

Consider `C=CC=O` [Acrolein], for which the average acute toxicity entry with mollusks is listed as “highly toxic”; with fish, “highly toxic”; in the series on crustaceans, “moderately toxic”; in the series with insects it was “moderately toxic”; in the series with amphibians, “very highly toxic”; in the series with zooplankton, “highly toxic”. Also, in series [1], the water solubility is 238,000 mg/L.

`[Ca+2].[O-]Cl.[O-]Cl` [calcium hypochlorite]: the “Canal Description (visual observation of algae)” value (“Canal Description” below) in the series on algae (T1-12 h: 12 hr. after Treatment 1, canal section 2.75 to 3.00 miles) is “Canal visually free of algae”; with algae (T1-12 h: 12 hr. after Treatment 1, canal section 3.25 to 3.50 miles), “Canal is visually free of algae”; in the series with algae (T1-12 h: 12 hr. after Treatment 1, canal section 4.75 to 5.00 miles) it was “Small amounts of discolored/dying algae are adhering to the bottom of the canal”; in the series on algae (T1-12 h: 12 hr. after Treatment 1, canal section 5.50 to 5.75 miles), “Small amounts of discolored/dying algae are adhering to bottom of the canal”; with algae (T1-12 h: 12 hr. after Treatment 1, canal section 5.75 to 6.00 miles), “Small amounts of discolored/dying algae are adhering to the bottom and sides of”; with algae (T1-7 d: 7 days after Treatment 1, canal section 0.00 to 0.25 miles) it was “Clear, visually free of algae”. For the same compound, the “Canal Description” value in the series on algae (T1-7 d: 7 days after Treatment 1, canal section 2.75 to 3.00 miles) was “Slight amount of algae is growing on the water surface of the canal”; in the series on algae (T1-7 d: 7 days after Treatment 1, canal section 3.25 to 3.50 miles), “Slight amount of algae is growing on the water surface and along the sides of”; with algae (T1-7 d: 7 days after Treatment 1, canal section 5.25 to 5.50 miles), “Slight amount of is algae is growing on the water surface and along the sides”; with algae (T1-7 d: 7 days after Treatment 1, canal section 5.50 to 5.75 miles), “Slight amount of algae is growing on the water surface and along the sides”; in the series with algae (T1-7 d: 7 days after Treatment 1, canal section 6.50 to 6.75 miles), “Small amount of algae is growing on the water surface. Slight amount of algae”; with algae (T1-7 d: 7 days after Treatment 1, canal section 6.75 to 7.00 miles), “Small amount of algae is growing on the water surface. Small amount of algae”. Moreover, the “Canal Description” value in the series with algae (T1-10 d: 10 days after Treatment 1) is “Slight amount of algae is growing along the sides of the canal; also recorded: Slight amount of algae is growing on the water surface and along the sides of; also recorded: Small amount of algae is growing on the water surface and along the sides of; also recorded: Slightly larger patches of algae are growing on the water surface and along”; in the series with algae (T2-12 h: 12 hr. after Treatment 2), “Canal visually free of algae; also recorded: Small amounts of discolored/dying algae are adhering to bottom of the canal; also recorded: Small amounts of discolored/dying algae are adhering to the bottom and sides of”; in the series with algae (T2-8 d: 8 days after Treatment 2, canal section 0.00 to 0.25 miles), “Clear, visually free of algae”; with algae (T2-8 d: 8 days after Treatment 2, canal section 3.00 to 3.25 miles) it was “Slight amount of algae is growing on the water surface of the canal”; in the series with algae (T2-8 d: 8 days after Treatment 2, canal section 4.00 to 4.25 miles), “Slight amount of algae is growing on the water surface and along the sides of”; with algae (T2-8 d: 8 days after Treatment 2, canal section 5.50 to 5.75 miles), “Slight amount of algae is growing on the water surface and along the sides”. Moreover, the “Canal Description” value in the series on algae (T2-8 d: 8 days after Treatment 2, canal section 6.50 to 6.75 miles) was “Small amount of algae is growing on the water surface. The amount of algae”; in the series on algae (T2-8 d: 8 days after Treatment 2, canal section 6.75 to 7.00 miles) it was “Small amount of algae on the water surface. The amount of algae on the sides”; in the series with algae (T2-12 d: 12 days after Treatment 2), “Very slight amount of algae is growing along the sides of the canal; also recorded: Slight amount of algae is growing along the sides of the canal; also recorded: Slight amount of algae is growing on the water surface and along the sides; also recorded: Slight amount of algae is growing on water surface and along the sides and; also recorded: Slightly more algae is growing on water surface and along the sides of the; also recorded: Slightly more algae is growing on the water surface and along the sides of”; in the series with algae (T2-b: just before Treatment 2, 10 days after Treatment 1), “Slight amount of algae is growing on the water surface and along the sides of the; also recorded: Slightly larger patches of algae are growing on the water surface and along the sides; also recorded: Slight amount of algae is growing along the sides of the canal”; with algae (T3-12 h: 12 hr. after Treatment 3, canal section 3.25 to 3.50 miles), “Canal visually free of algae”; in the series with algae (T3-12 h: 12 hr. after Treatment 3, canal section 5.00 to 5.25 miles), “Small amounts of discolored/dying algae are present”. Besides, the “Canal Description” value was “Small amounts of discolored/dying algae are adhering to the bottom and sides of” in the series on algae (T3-12 h: 12 hr. after Treatment 3, canal section 5.75 to 6.00 miles); “Slight amount of algae is growing along the sides of the canal; also recorded: Slightly more algae is growing on the water surface and along the sides of the canal; also recorded: More algae is growing on the water surface of the canal. Small amount of algae is; also recorded: Very slight amount of algae is growing along the sides of the canal; also recorded: More algae is growing on the water surface of the canal. More algae is growing up” with algae (T3-b: just before Treatment 3, 12 days after Treatment 2). For the same compound, the LD50 in the series with rats is 850 gm/100 kg.
